Reference: PMC5736767, “A Comparison of Drug Transport in Pulmonary Absorption Models: Isolated Perfused rat Lungs, Respiratory Epithelial Cell Lines and Primary Cell Culture” (Pharmaceutical Research, 2017)
Where two headings read alike, the source gives them in different places.

What was measured:
[1] = Absorptive (A to B) permeability in normal human bronchial epithelial (NHBE) cell layers; format: in vitro ADME; conditions: human, apical to basolateral, 10 μM, pH 7.4, 2 h, mean ± SD (n = 3, n = 18 for mannitol)
Description: (§1) NHBE were cultured in a cell culture flask using the BEGM bullet kit provided by the supplier until reaching 70–80% confluence. […] After 24 h, cells were cultured at an air interface. Cell layers were used for transport studies after 14 d in culture.

in vitro [2] = conditions: male, Wistar, rat, pH 7.4
Description: (§2) Eight-week old male Wistar rats were obtained from Harlan UK Ltd. (Oxon, Oxfordshire). They were fed with a SDS RM1(E) maintenance diet (Special Diets Services Ltd., Essex). They were maintained at 20–21°C and 45–60% humidity with a 12 h light/dark cycle. All procedures performed on these animals were in accordance with regulations and established guidelines and were reviewed and approved by an Institutional Animal Care and Use Committee or through an ethical review process.
(§3) Rats were sacrificed with a lethal injection of pentobarbital (130 mg/kg body weight). As soon as they were unconscious, rats were secured in a supine position on a board inclined at approximately 45°. A midline incision was made from the neck to the abdomen using a scalpel blade and the rat was exsanguinated by severing the main abdominal vessels. The trachea was exposed and carefully pierced through one wall with a 21 G needle. A 3 cm long cannula made of a polyethylene tubing (PolyE 240, Harvard Apparatus Ltd., Edenbridge, UK) mounted on a blunt 21 G needle was introduced into the trachea. This was securely tied with two suture threads (Silk black braid USP size 4.0, Harvard apparatus Ltd) and a 25 mm Dieffenbach’s bulldog artery clip (Scientific Laboratory Supplies Ltd., Nottingham, UK). The diaphragm was cut open, 0.5 mL of air was administered to the lungs to partly re-inflate them and the rib cage was laterally incised with scissors taking care not to damage the lung tissue.
(§4) After the thymus was removed, the heart was twisted slightly to expose the pulmonary artery and then stretched down using a Halstead’s artery clamp (Scientific Laboratory Supplies). An incision was made and the pulmonary artery was cannulated using a cannula similar to the tracheal one. This was secured with a micro aneurysm clip (Harvard apparatus Ltd). Lungs were perfused using a single pass constant flow rate of 8 mL/min. […] The pericardium was dissected free to allow free efflux of the perfusate and lungs were inflated manually with 1.5 mL air using a 10 mL syringe connected to the intratracheal cannula. As soon as the tissue blanched, the lungs were removed carefully from the chest cavity while maintaining the perfusion and a semi micro Rexaloy clamp (Fisher Scientific, Loughborough, UK) was used to suspend the lungs vertically above a funnel and beaker.
(§5) After isolation, the lungs were allowed to stabilize for 1–2 min. The syringe attached to the intratracheal cannula was then disconnected and 100 μL of the test solutions were instilled into the airways using a Hamilton microsyringe. Lungs were re-inflated with 1.5 mL of air and sampling was performed by collecting the effluent solution dripping from the left atrium at different time intervals for 90 min. Lung viability was assessed by visual inspection for any sign of oedema as well as by the profile of mannitol airway to perfusate transfer.
(§6) The cumulative percentage of drug transferred from the airways to the perfusate in 90 min was calculated as the fraction of the administered dose recovered in the perfusate. […] The apparent first-order absorption rate constant (KaIPL) was calculated as follows: KaIPL=ln2/t1/2abs
(§7) Absorption data were collected using 4 or 5 IPL preparations.

[3] = system: isolated perfused rat lungs; test: in vitro
Description: as §2, §3, §4, §5, §6, §7

in vitro [4] = conditions: human, pH 7.4
[5] = Absorptive (A to B) permeability in Calu-3 cell layers; conditions: human
NHBE cell layers = test: Absorptive (A to B) permeability in normal human bronchial epithelial (NHBE) cell layers; format: in vitro ADME
Description: as §1

rat lungs = conditions: apparent first-order pulmonary absorption rate constant in rats in vivo, cited from earlier work
[6] = Absorptive (A to B) permeability in 16HBE14o- cell layers; conditions: human, pH 7.4
[7] = Table I panel of test compounds; source not stated; cited from earlier work
16HBE14o- cell layers = conditions: pH 7.4
Calu-3 cell layers = test: Absorptive (A to B) permeability in Calu-3 cell layers; conditions: Calu-3, apical to basolateral, 10 μM, pH 7.4, 2 h; mean ± SEM (n = 6, n = 36 for mannitol)
[8] = male, Wistar, rat, 90 min, pH 7.4
[9] = pH 7.4, Papp, Calu-3, apical to basolateral, 10 μM, pH 7.4, 2 h, mean ± SEM (n = 6, n = 36 for mannitol)
[10] = apparent first-order absorption rate constant = ln2/t1/2 abs, intratracheal instillation 100 μL, mean ± SD

Compound	Papp at 2 h, 10 μM [1] [×10⁻⁶ cm/s]	half-life (in vitro [2]) [min]	% transferred to the perfusate in 90 min [3, 8] [%]	KaIPL ([3]; male, Wistar, rat, pH 7.4) [min⁻¹]	Papp at 2 h, 10 μM (in vitro [4]) [×10⁻⁶ cm/s]	Papp at 2 h, 10 μM [5, 9] [×10⁻⁶ cm/s]	Ka in vivo (rat lungs; ref [22])	further results
COCCc1ccc(OCC(O)CNC(C)C)cc1 (centres unmarked) [Metoprolol]	11.3 ± 0.7	3 ± 1	65 ± 4	0.260 ± 0.050	24.5 ± 2.5	10.3	–	–
CC(C)NCC(O)COc1cccc2ccccc12 (centres unmarked) [Propranolol]	16.8 ± 3	–	47 ± 9	0.098 ± 0.016	17.3 ± 0.8	7 ± 0.4	–	half-life (in vitro [2]; 100 μL): 7 ± 1 min
OC[C@@H](O)[C@@H](O)[C@H](O)[C@H](O)CO [Mannitol]	1.6 ± 0.5	25 ± 5	51 ± 4	0.029 ± 0.005	–	0.5 ± 0.1	–	Papp (NHBE cell layers): 1.6 ± 0.5 x 10^−6, cm s^−1; Papp at 2 h, 10 μM ([5]; pH 7.4, Papp, Calu-3, as stated in text): 0.48 ± 0.06 ×10⁻⁶ cm/s; Ka in vivo (rat lungs; ref [24]): 0.011 ^(3) min^−1; Papp at 2 h, 10 μM [6]: 3.7 ± 0.5 ×10⁻⁶ cm/s
COc1ccc(CC(C)NCC(O)c2ccc(O)c(NC=O)c2)cc1 (centres unmarked) [Formoterol]	–	–	–	–	–	–	0.19 ^(1) min^−1	Log P [7]: 1.1; half-life (in vitro [2]; 100 μL): 30 ± 2 min; KaIPL [3, 10]: 0.023 ± 0.002 min⁻¹; % transferred to the perfusate in 90 min ([3]; cumulative fraction of administered dose recovered in perfusate at 90 min, mean ± SD): 46 ± 7%; Papp at 2 h, 10 μM ([5]; pH 7.4): 6.4 ± 0.3 ×10⁻⁶ cm/s
CC(C)(C)NCC(O)c1cc(O)cc(O)c1 (centres unmarked) [Terbutaline]	13.8 ± 0.8	19 ± 3	52 ± 12	0.037 ± 0.006	19.3 ± 2	7.3 ± 0.4	0.06 ^(1) min^−1	Log P [7]: 0.1
CN(C)CCCN1c2ccccc2CCc2ccccc21 [Imipramine]	–	–	58 ± 9	–	–	–	0.53 ^(1) min^−1	KaIPL [3, 10]: 0.071 ± 0.021 min⁻¹
Dextran 10 K	–	–	–	–	–	–	–	Papp (NHBE cell layers; apical to basolateral, 10 μM, pH 7.4, 2 h, mean ± SD (n = 3, n = 18 for mannitol)): 0.7 ± 0.1 10^−6 cm/s; KaIPL [3]: 0.017 ± 0.002 min⁻¹; t1/2 abs ([3]; rat): 41 ± 6 min; Papp (16HBE14o- cell layers): 1 ± 0.1 ×10⁻⁶ cm/s; Papp (Calu-3 cell layers): 0.2 ± 0.0 10^−6 cm/s; Ka in vivo (rat lungs; ref [23]): 0.00007 ^(2) min^−1
